In US9815866B2, “Peptides that bind to epithelial cell adhesion molecule” (JAPANESE FOUNDATION FOR CANCER RESEARCH, priority 2012, dated 2017):
Bridge positions count the residues as written; N and C are the ends. Ends that are not written are not given here. Peptide text beside a SMILES is read from it. * marks the point of attachment. Biotin = O=C1N[C@H]2[C@H](CS[C@H]2CCCCC(=O)*)N1

Key:
EpCAM on HT-29 = target: T1, EpCAM on HT-29 (Homo sapiens, UniProt P16422); assay: Staining of spheroid-cultured HT-29 cells with FITC-modified peptide; type: cell-based; parameters: endogenous in cells; host or cells: HT-29; settings: FITC-labeled peptide, 0.4 μM
T1 sequence (P16422 24-314): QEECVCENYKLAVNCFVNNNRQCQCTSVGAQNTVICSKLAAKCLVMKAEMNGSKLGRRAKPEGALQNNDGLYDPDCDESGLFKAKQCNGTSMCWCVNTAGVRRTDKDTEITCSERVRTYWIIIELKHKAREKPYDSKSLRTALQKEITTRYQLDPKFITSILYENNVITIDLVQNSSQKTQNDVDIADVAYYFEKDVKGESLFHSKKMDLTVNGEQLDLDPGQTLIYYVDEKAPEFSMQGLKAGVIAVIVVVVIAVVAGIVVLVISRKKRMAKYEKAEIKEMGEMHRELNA
Description: The HT-29 cells as EpCAM-expressing cells were cultured by spheroid culture method as follows: 4×10^5 cells are suspended in 3 ml of D-MEM/F-12 medium (Dulbecco's Modified n Eagle Medium:Nutrient Mixture 12, 1:1 mixture) (Gibco/Life Technologies Inc.) supplemented with 20 ng/ml human EGF (Miltenyi Biotec K.K.), 20 ng/ml human EGF-2 (Miltenyi Biotec K.K.), B-27 (Gibco/Life Technologies Inc.), penicillin, and streptomycin and inoculated to EZ-Sphere®, a Petri dish of 3.5 cm in diameter coated with MPC polymer. After static culture for 72 hours, the cells were collected while the medium was suspended by pipetting. The cells were stained with the FITC-modified peptide and observed under a fluorescence microscope. […]

[1] = target: T2, 293T cells transfected with full-length EpCAM gene (Homo sapiens, UniProt P16422); assay: Staining of 293T cells forced to express EpCAM with FITC-modified peptide; type: cell-based
T2 construct: an expression plasmid in which the full-length EpCAM gene incorporated; expressed in transfected cells; host or cells: 293T
T2 sequence (P16422 24-314): T1 sequence (P16422 24-314)
Text: 293T cells expressing no endogenous EpCAM were transfected with pkk196, an expression plasmid in which the full-length EpCAM gene incorporated, and forced to express EpCAM, followed by staining using FITC-modified Ep114.

EpCAM [2] = target: T3, EpCAM (Homo sapiens, UniProt P16422); assay: Binding activity against EpCAM after oxidation treatment (S—S bond formation, HPLC fractionation)
T3 sequence (P16422 24-314): T1 sequence (P16422 24-314)

EpCAM [3] = target: T4, EpCAM (Homo sapiens, UniProt P16422); assay: ELISA with immobilized biotinylated peptide and purified EpCAM; type: binding; settings: purified EpCAM 0, 10 or 100 ng
T4 construct: with insertions myc and His tags at the C terminus of the extracellular domain; myc (C); made in house; host or cells: HEK-293T
T4 sequence (P16422 24-265 limits assumed): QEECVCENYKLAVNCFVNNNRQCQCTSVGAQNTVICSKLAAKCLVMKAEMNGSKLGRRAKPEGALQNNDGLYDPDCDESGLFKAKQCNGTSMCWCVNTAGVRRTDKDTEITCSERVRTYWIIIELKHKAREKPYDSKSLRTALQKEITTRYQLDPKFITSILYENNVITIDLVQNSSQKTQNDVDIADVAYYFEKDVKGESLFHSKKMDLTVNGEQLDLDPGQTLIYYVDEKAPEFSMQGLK
Description: was immobilized onto an ELISA plate via streptavidin, and purified EpCAM was added thereto in an amount of 0, 10, or 100 ng and reacted. After washing, bound EpCAM was detected using the anti-EpCAM antibody. A biotin-modified peptide PE194 (Ac-[…](biotin)-NH2) (SEQ ID NO: 13) of the L3A variant (non-EpCAM-binding variant) was used as a control.

EpCAM [4] = target: T4, EpCAM; assay: Dissociation constant of EpCAM-binding peptide and EpCAM by fluorescence depolarization method; settings: FITC-modified peptide; Kd estimated by curve fitting, Hill equation; N.B.: Not bound
Description: The obtained EpCAM peptides were assayed for their strength of binding to EpCAM by the fluorescence depolarization method, which is a method for evaluating the interaction between molecules. Each fluorescently labeled EpCAM peptide and EpCAM are used to determine the strength of binding from the kinetics of depolarization by Brownian movement.
Each FITC-modified EpCAM peptide or control peptide was suspended at a concentration of approximately 100 μM in PBS. After centrifugation, the supernatant was collected and diluted 10-fold, and the absorbance was measured at 495 nm From the measurement value, the molar concentration of the peptide was determined using the formula of Beer-Lambert of the following expression 1: A=E×b×C [Expression 1]
EpCAM is diluted with PBS into several concentrations from 0 until reaching equilibrium (40 nM for the Ep133 peptide), and the FITC-modified peptide whose precise concentration has been measured by the aforementioned method is added to the dilutions thus prepared. The sample was left at a temperature for measurement for 30 minutes or longer and subjected to polarization measurement using a spectrofluorometer FP-6500 (JASCO Corp.) equipped with an automatic polarization measurement unit (JASCO Corp., APH-103). Kd was estimated by curve fitting according to the Hill equation.
The dissociation constants of the two types of peptides Ep133 (FIG. 2(A)) and Ep114 (FIG. 2(C)), which were obtained in the present invention and had the high ability to bind to EpCAM, were measured by the fluorescence depolarization method.
The dissociation constants of the EpCAM-binding peptide Ep301 (FIG. 2(D)) disclosed in Patent Literature 2 and Ep301 control (FIG. 2(E)), which was a control peptide derived from Ep301 by the substitution of cysteine at positions 5 and 10 by serine, and a sequence of EpCAM from residue 106 to 119 (FIG. 2(F)) having partial homology to EpCAM-binding peptides were measured similarly.

[5] = target: T5, EpCAM-expressing cells HT-29 (Homo sapiens, UniProt P16422); assay: Cell staining of HT-29 cells, confocal microscope; type: cell-based; settings: HT-29, FITC-labeled peptide 0.4 μM, 37° C., 1 hour
T5 construct: EpCAM on HT-29 was stained at a concentration of 0.4 μM; endogenous in cells; host or cells: HT-29
T5 sequence (P16422 24-314): T1 sequence (P16422 24-314)
Description: The EpCAM-expressing cells HT-29 or the non-expressing cells Hs578T were cultured in a medium containing 10% fetal calf serum in a Petri dish for 48 hours and then incubated at 37° C. for 1 hour with the FITC-labeled Ep114 peptide or a L3A control labeled peptide at a final concentration of 0.4 μM Immediately thereafter, the cells were observed under a confocal microscope.

anti-Ep114 antibody = assay: Immunoprecipitation with biotinylated Ep114 on streptavidin beads: binding to anti-Ep114 antibody; parameters: species or system rabbit; settings: peptide on streptavidin-magnetic beads, Western blot
Description: 250 μg of streptavidin-magnetic beads (Dynabeads® M-280 streptavidin, VERITAS Corp.) in TBS containing 2% BSA was added to 20 μg of the biotinylated Ep114 peptide and shaken at room temperature for 30 minutes, followed by washing with TBS. Beads reacted without the peptide were used as a control. The anti-Ep114 antibody was added to the beads in TBST and reacted at room temperature for 1 hour. After washing with TBS, the beads were collected. The collected beads were heated at 95° C. for 5 minutes in a SDS sample buffer. After Western-blotting, the anti-Ep114 antibody was detected using HRP-labeled anti-rabbit antibodies.
A schematic diagram of the reaction with the magnetic beads is shown in the left panel of FIG. 5A, and the Western blot results are shown on the right panel thereof.

EpCAM [6] = target: T4, EpCAM; assay: ELISA with ferritin-fused Ep114 peptide; type: binding; settings: either partner immobilized
Description: Ep114 was fused to the N terminus of Fer8 (Non Patent Literature 6), a ferritin derivative, and used in analysis.
1 μg of the ferritin-fused Ep114 peptide (Ep114/fer8) or ferritin (fer8) was immobilized onto an ELISA plate. Then, purified EpCAM was added thereto at different concentrations. Bound EpCAM was detected using the anti-EpCAM antibody (FIG. 8A).
Next, 0.2 μg of purified EpCAM was immobilized onto an ELISA plate. Then, the ferritin-fused Ep114 peptide (Ep114/fer8) or ferritin (fer8) was added thereto at different concentrations. Bound Ep114 peptide (Ep114/fer8) or ferritin (fer8) was detected using an anti-ferritin antibody (FIG. 8B).

114-FITC: FITC-labeled Ep114 peptide (KHLQCVRNICWS; cysteine pairing not given here; also: FITC-labeled, position not given here) [Peptide 114-FITC]
staining of EpCAM on HT-29 spheroids (EpCAM on HT-29): stained

114control-FITC: FITC-labeled Ep114 control peptide in which cysteine at positions 5 and 10 is substituted by serine (KHLQSVRNISWS; also: FITC-labeled, position not given here) [reference compound]
staining of EpCAM on HT-29 spheroids (EpCAM on HT-29): no staining is observed

133-FITC: FITC-labeled Ep133 peptide (EHLHCLGSLCWP; cysteine pairing not given here; also: FITC-labeled, position not given here) [Peptide 133-FITC]
staining of EpCAM on HT-29 spheroids (EpCAM on HT-29): stained

133control-FITC: FITC-labeled Ep133 control peptide in which cysteine at positions 5 and 10 is substituted by serine (EHLHSLGSLSWP; also: FITC-labeled, position not given here) [reference compound]
staining of EpCAM on HT-29 spheroids (EpCAM on HT-29): no staining is observed

CC(C)C[C@@H]1NC(=O)[C@@H](NC(=O)[C@H](Cc2c[nH]cn2)NC(=O)[C@H](CC(C)C)NC(=O)[C@H](Cc2c[nH]cn2)NC(=O)[C@@H](N)CCC(=O)O)CSSC[C@@H](C(=O)N[C@@H](Cc2c[nH]c3ccccc23)C(=O)N2CCC[C@H]2C(=O)O)NC(=O)[C@H](CC(C)C)NC(=O)[C@H](CO)NC(=O)CNC1=O [Ep133, EHLHCLGSLCWP] (H-EHLHCLGSLCWP-OH; disulfide 5-10; N-terminus and C-terminus assumed)
ability to bind to EpCAM without active oxidation treatment ([1]; data not shown): did not show the ability to bind to EpCAM
binding activity against EpCAM (EpCAM [2]): only a fraction of the peptides having the S—S bond showed binding activity against EpCAM

Ac-KHAQCVRNICWSPPPPPPKK(Biotin)-NH2 (cysteine pairing not given here) [PE194, reference compound]
ELISA signal (EpCAM [3]): increase in signal intensity was rarely observed

Ac-KHLQCVRNICWSPPPPPPKK(Biotin)-NH2 (cysteine pairing not given here) [PE183]
ELISA signal (EpCAM [3]): enhancement in ELISA signal proportional to the amount of EpCAM added

EHLHSLGSLSWP [Ep133 control, Ep133 with cysteine at positions 5 and 10 substituted by serine]
Kd (nM) (EpCAM [4]): N.B.

Ep114Cys: FITC-modified Ep114 peptide that did not undergo oxidation treatment (KHLQCVRNICWS; also: FITC-modified, position not given here, no oxidation treatment, cysteines not deliberately cross-linked)
ability to stain EpCAM ([1]; FITC-modified peptide with or without oxidation treatment): equivalent ability to stain EpCAM

KAKQCNGTSMCWPK [EpCAM partial sequence]
Kd (nM) (EpCAM [4]): N.B.

KSLQSINNLSWP [Ep301 control, Ep301 with cysteine at positions 5 and 10 substituted by serine]
Kd (nM) (EpCAM [4]): N.B.

L3A variant: FITC-labeled Ep114 variant peptide with leucine at 3rd residue substituted by alanine, staining control (KHAQCVRNICWS; cysteine pairing not given here; also: FITC-labeled, position not given here) [reference compound]
staining of cell membrane portions [5]: no staining was observed

biotinylated Ep114: Ep114 peptide biotinylated at the stage of its synthesis, without linker (KHLQCVRNICWS; cysteine pairing not given here; also: biotin label, position not given here)
binding to anti-Ep114 antibody (anti-Ep114 antibody): bound with the anti-Ep114 antibody

ferritin-fused Ep114 peptide: Ep114 fused to the N terminus of Fer8, a ferritin derivative (KHLQCVRNICWS; not fully specified (C-terminus, bridges); cysteine pairing not given here; also: fused to ferritin Fer8 (recombinant carrier), not in the letters)
detection of EpCAM (EpCAM [6]): capable of sensitively detecting EpCAM
